Each structure is given as a SMILES string.

One molecule from paper PMC5218480 (PLoS ONE, 2017) can be followed below.

For the assay, the system named is MV-4-11 cells. Kind of assay: Gene expression microarray analysis (Affymetrix PrimeView) and GSEA. The class given is cell-based, human. Further details: RFU PODN (11730768_x_at) / Fold change /veh PODN (11730768_x_at) / RFU LINC00158 (11744669_a_at) / Fold change /veh LINC00158 (11744669_a_at) / RFU DUSP10 (11751237_a_at) / Fold change /veh DUSP10 (11751237_a_at) / RFU ID3 (11757404_x_at) / Fold change /veh ID3 (11757404_x_at) / RFU PLEKHG5 (11737974_s_at) / Fold change /veh PLEKHG5 (11737974_s_at) / RFU LRRC4B (11730491_at) / Fold change /veh LRRC4B (11730491_at) / RFU GIMAP4 (11747438_a_at) / Fold change /veh GIMAP4 (11747438_a_at) / RFU KRT8 (11758183_x_at) / Fold change /veh KRT8 (11758183_x_at) / RFU CNN1 (11734310_a_at) / Fold change /veh CNN1 (11734310_a_at) / RFU VPS37D (11726825_at) / Fold change /veh VPS37D (11726825_at) / RFU C10orf10 (11716522_x_at) / Fold change /veh C10orf10 (11716522_x_at) / RFU KIR2DL2 /// KIR2DL4 /// KIR2DL5A /// KIR2DL5B /// KIR2DS1 /// KIR2DS2 /// KIR2DS3 /// KIR2DS4 /// KIR3DL3 /// KIR3DL3 /// KIR3DS1 (11738374_at) / Fold change /veh KIR2DL2 /// KIR2DL4 /// KIR2DL5A /// KIR2DL5B /// KIR2DS1 /// KIR2DS2 /// KIR2DS3 /// KIR2DS4 /// KIR3DL3 /// KIR3DL3 /// KIR3DS1 (11738374_at) / RFU C1QL1 (11718748_at) / Fold change /veh C1QL1 (11718748_at) / RFU TMPRSS4 (11747572_a_at) / Fold change /veh TMPRSS4 (11747572_a_at) / RFU HAMP (11756126_x_at) / Fold change /veh HAMP (11756126_x_at) / RFU RNFT2 (11725882_a_at) / Fold change /veh RNFT2 (11725882_a_at) / RFU NR4A2 (11747474_a_at) / Fold change /veh NR4A2 (11747474_a_at) / RFU ABCC12 (11746883_a_at) / Fold change /veh ABCC12 (11746883_a_at) / RFU TMEM136 (11760407_x_at) / Fold change /veh TMEM136 (11760407_x_at) / RFU CLDN22 /// WWC2 (11732394_at) / Fold change /veh CLDN22 /// WWC2 (11732394_at) / RFU HLA-DPB1 (11760878_x_at) / Fold change /veh HLA-DPB1 (11760878_x_at) / RFU SPINT1 (11716480_a_at) / Fold change /veh SPINT1 (11716480_a_at) / RFU GAP43 (11754022_s_at) / Fold change /veh GAP43 (11754022_s_at) / RFU A4GNT (11735810_at) / Fold change /veh A4GNT (11735810_at) / RFU PRB3 (11715151_x_at) / Fold change /veh PRB3 (11715151_x_at) / RFU TUBB4B (11761932_at) / Fold change /veh TUBB4B (11761932_at) / RFU CAPN14 (11732068_a_at) / Fold change /veh CAPN14 (11732068_a_at) / RFU TMCC2 (11721928_a_at) / Fold change /veh TMCC2 (11721928_a_at) / RFU IRGQ (11745062_a_at) / Fold change /veh IRGQ (11745062_a_at) / RFU FAM174B (11720279_a_at) / Fold change /veh FAM174B (11720279_a_at) / RFU TMPRSS4 (11748680_a_at) / Fold change /veh TMPRSS4 (11748680_a_at) / RFU FAM212B (11763350_a_at) / Fold change /veh FAM212B (11763350_a_at) / RFU PLEKHG5 (11743358_a_at) / Fold change /veh PLEKHG5 (11743358_a_at) / RFU ZSCAN30 (11745921_a_at) / Fold change /veh ZSCAN30 (11745921_a_at) / RFU CMKLR1 (11741424_a_at) / Fold change /veh CMKLR1 (11741424_a_at) / RFU LOC101060620 /// MAPK8IP1 (11723275_at) / Fold change /veh LOC101060620 /// MAPK8IP1 (11723275_at) / RFU SPTSSB (11747773_x_at) / Fold change /veh SPTSSB (11747773_x_at) / RFU PRSS12 (11739890_at) / Fold change /veh PRSS12 (11739890_at) / RFU BIN1 (11741810_x_at) / Fold change /veh BIN1 (11741810_x_at) / RFU WNT11 (11732464_a_at) / Fold change /veh WNT11 (11732464_a_at) / RFU C10orf10 (11716521_a_at) / Fold change /veh C10orf10 (11716521_a_at) / RFU C5orf56 (11738089_at) / Fold change /veh C5orf56 (11738089_at) / RFU CYB561 (11721691_x_at) / Fold change /veh CYB561 (11721691_x_at) / RFU ANKRD19P (11752326_a_at) / Fold change /veh ANKRD19P (11752326_a_at) / RFU OR2T12 /// OR2T33 /// OR2T8 (11738714_s_at) / Fold change /veh OR2T12 /// OR2T33 /// OR2T8 (11738714_s_at) / RFU VCAN (11748164_a_at) / Fold change /veh VCAN (11748164_a_at) / RFU JSRP1 (11732532_at) / Fold change /veh JSRP1 (11732532_at) / RFU KRTAP10-11 (11738290_x_at) / Fold change /veh KRTAP10-11 (11738290_x_at) / RFU MYO3A (11730013_a_at) / Fold change /veh MYO3A (11730013_a_at) / RFU EBF3 (11725865_a_at) / Fold change /veh EBF3 (11725865_a_at) / RFU CAMK2N1 (11719241_x_at) / Fold change /veh CAMK2N1 (11719241_x_at) / RFU C5orf56 (11738088_a_at) / Fold change /veh C5orf56 (11738088_a_at) / RFU OLFML3 (11715873_a_at) / Fold change /veh OLFML3 (11715873_a_at) / RFU LOC100653217 /// NTM (11731650_a_at) / Fold change /veh LOC100653217 /// NTM (11731650_a_at) / RFU MAPK11 (11762145_a_at) / Fold change /veh MAPK11 (11762145_a_at) / RFU FIZ1 (11724087_x_at) / Fold change /veh FIZ1 (11724087_x_at) / RFU OASL (11726364_x_at) / Fold change /veh OASL (11726364_x_at) / RFU SOX15 (11748057_x_at) / Fold change /veh SOX15 (11748057_x_at) / RFU CD79A (11719716_a_at) / Fold change /veh CD79A (11719716_a_at) / RFU HIST1H1D (11736915_at) / Fold change /veh HIST1H1D (11736915_at) / RFU CASKIN2 (11723855_a_at) / Fold change /veh CASKIN2 (11723855_a_at) / RFU LOC730098 (11760151_x_at) / Fold change /veh LOC730098 (11760151_x_at) / RFU OR4N2 (11742367_at) / Fold change /veh OR4N2 (11742367_at) / RFU PRRT2 (11749266_a_at) / Fold change /veh PRRT2 (11749266_a_at) / RFU SNX32 (11753110_a_at) / Fold change /veh SNX32 (11753110_a_at) / RFU CDHR5 (11726645_a_at) / Fold change /veh CDHR5 (11726645_a_at) / RFU RCAN1 (11760418_a_at) / Fold change /veh RCAN1 (11760418_a_at) / RFU FAM167A (11723789_a_at) / Fold change /veh FAM167A (11723789_a_at) / RFU FAM26E (11764081_at) / Fold change /veh FAM26E (11764081_at) / RFU ISYNA1 (11749810_s_at) / Fold change /veh ISYNA1 (11749810_s_at) / RFU ACY1 (11761880_at) / Fold change /veh ACY1 (11761880_at) / RFU 11764098_at / Fold change /veh 11764098_at / RFU SAMD14 (11745864_x_at) / Fold change /veh SAMD14 (11745864_x_at) / RFU NPB (11741838_a_at) / Fold change /veh NPB (11741838_a_at) / RFU TMPRSS6 (11731388_a_at) / Fold change /veh TMPRSS6 (11731388_a_at) / RFU KRTAP10-2 (11738614_at) / Fold change /veh KRTAP10-2 (11738614_at) / RFU ARHGAP8 /// PRR5-ARHGAP8 (11727945_x_at) / Fold change /veh ARHGAP8 /// PRR5-ARHGAP8 (11727945_x_at) / RFU KRTAP5-7 /// NADSYN1 (11734609_at) / Fold change /veh KRTAP5-7 /// NADSYN1 (11734609_at) / RFU RASL12 (11751679_a_at) / Fold change /veh RASL12 (11751679_a_at) / RFU CDKN2B (11736163_a_at) / Fold change /veh CDKN2B (11736163_a_at) / RFU PRF1 (11729649_at) / Fold change /veh PRF1 (11729649_at) / RFU, ZNF638 /// ZNF638-IT1 / Fold change vs veh, ZNF638 /// ZNF638-IT1 / RFU, PANK3 / Fold change vs veh, PANK3 / RFU, SH3YL1 / Fold change vs veh, SH3YL1 / RFU, ZEB2 / Fold change vs veh, ZEB2 / RFU, NRIP1 / Fold change vs veh, NRIP1 / RFU, PTTG1IP / Fold change vs veh, PTTG1IP / RFU, CAPN2 / Fold change vs veh, CAPN2 / RFU, MED14 / Fold change vs veh, MED14 / RFU, SNORA58 / Fold change vs veh, SNORA58 / RFU, C1orf63 / Fold change vs veh, C1orf63 / RFU, LRRFIP1 / Fold change vs veh, LRRFIP1 / RFU, NDUFAF7 / Fold change vs veh, NDUFAF7 / RFU, SLC12A2 / Fold change vs veh, SLC12A2 / RFU, IBTK / Fold change vs veh, IBTK / RFU, ESF1 / Fold change vs veh, ESF1 / Fold change vs veh, TMEM50B / RFU, TAOK1 / Fold change vs veh, TAOK1 / RFU, ACBD3 / Fold change vs veh, ACBD3 / RFU, TMA16 / Fold change vs veh, TMA16 / RFU, RWDD3 / Fold change vs veh, RWDD3 / RFU, BCAT1 / Fold change vs veh, BCAT1 / RFU, EDEM3 / Fold change vs veh, EDEM3 / RFU, TMEM33 / Fold change vs veh, TMEM33 / RFU, WDR75 / Fold change vs veh, WDR75 / RFU, AHCTF1 / Fold change vs veh, AHCTF1 / RFU, TFRC / Fold change vs veh, TFRC / RFU, ZDHHC17 / Fold change vs veh, ZDHHC17 / RFU, NOM1 / Fold change vs veh, NOM1 / RFU, ARL8B / Fold change vs veh, ARL8B / RFU, ZBTB11 / Fold change vs veh, ZBTB11 / RFU, TAMM41 / Fold change vs veh, TAMM41 / RFU, KIAA1704 /// LOC100996395 / Fold change vs veh, KIAA1704 /// LOC100996395 / RFU, ING1 / Fold change vs veh, ING1 / RFU, TRMT61B / Fold change vs veh, TRMT61B / RFU, FUBP3 / Fold change vs veh, FUBP3 / RFU, TP53 / Fold change vs veh, TP53 / RFU, TNKS2 / Fold change vs veh, TNKS2 / RFU, ZFP14 / Fold change vs veh, ZFP14 / RFU, ACTR2 / Fold change vs veh, ACTR2 / RFU, PPP3R1 / Fold change vs veh, PPP3R1 / RFU, PIK3R1 / Fold change vs veh, PIK3R1 / RFU, HNRNPA1 / Fold change vs veh, HNRNPA1 / RFU, RNF170 / Fold change vs veh, RNF170 / RFU, ZNF28 / Fold change vs veh, ZNF28 / RFU, RNGTT / Fold change vs veh, RNGTT / RFU, OGT / Fold change vs veh, OGT / RFU, BRD1 / Fold change vs veh, BRD1 / RFU, MARS / Fold change vs veh, MARS / RFU, ZNF655 / Fold change vs veh, ZNF655 / RFU, FAHD1 / Fold change vs veh, FAHD1 / RFU, BDP1 / Fold change vs veh, BDP1 / RFU, LRRCC1 / Fold change vs veh, LRRCC1 / RFU, ARID1A / Fold change vs veh, ARID1A / RFU, ZNF146 / Fold change vs veh, ZNF146 / RFU, ZNF330 / Fold change vs veh, ZNF330 / RFU, GPN3 / Fold change vs veh, GPN3 / RFU, C9orf123 / Fold change vs veh, C9orf123 / RFU, N4BP2L2 / Fold change vs veh, N4BP2L2 / RFU, ARFIP1 / Fold change vs veh, ARFIP1 / RFU, FAM179B / Fold change vs veh, FAM179B / RFU, BCL10 / Fold change vs veh, BCL10 / RFU, UHRF1BP1L / Fold change vs veh, UHRF1BP1L / RFU, BET1 / Fold change vs veh, BET1 / RFU, CNOT2 / Fold change vs veh, CNOT2 / RFU, ZNF268 / Fold change vs veh, ZNF268 / Fold change vs veh, ZNF507 / RFU, DGCR2 / Fold change vs veh, DGCR2 / RFU, WDSUB1 / Fold change vs veh, WDSUB1 / Fold change vs veh, HSP90B1 /// MIR3652 / RFU, ADSS / Fold change vs veh, ADSS / RFU, GK / Fold change vs veh, GK / RFU, ZNF148 / Fold change vs veh, ZNF148 / RFU, TAF9 / Fold change vs veh, TAF9 / RFU, SLC1A5 / Fold change vs veh, SLC1A5 / RFU, SLMO2 / Fold change vs veh, SLMO2 / RFU, ABCC4 / Fold change vs veh, ABCC4 / RFU, LOC101060439 /// RAP1B / Fold change vs veh, LOC101060439 /// RAP1B / RFU, RFX7 / Fold change vs veh, RFX7 / RFU, GTPBP10 / Fold change vs veh, GTPBP10 / RFU, CNEP1R1 / Fold change vs veh, CNEP1R1 / RFU, BIVM-ERCC5 /// ERCC5 / Fold change vs veh, BIVM-ERCC5 /// ERCC5 / RFU, ILF3 / Fold change vs veh, ILF3 / RFU 11762660_at / Fold change /veh 11762660_at / RFU VCAN (11757783_s_at) / Fold change /veh VCAN (11757783_s_at) / RFU DDX43 (11728927_at) / Fold change /veh DDX43 (11728927_at) / RFU KRT8 (11758188_x_at) / Fold change /veh KRT8 (11758188_x_at) / RFU NKD1 (11759106_at) / Fold change /veh NKD1 (11759106_at) / RFU SRD5A1 (11742802_a_at) / Fold change /veh SRD5A1 (11742802_a_at) / RFU TPSAB1 /// TPSB2 (11721975_s_at) / Fold change /veh TPSAB1 /// TPSB2 (11721975_s_at) / RFU GSTM3 (11746129_a_at) / Fold change /veh GSTM3 (11746129_a_at) / RFU IL23R (11737362_x_at) / Fold change /veh IL23R (11737362_x_at) / RFU TMEM51 (11727254_a_at) / Fold change /veh TMEM51 (11727254_a_at) / RFU PIWIL2 (11732686_x_at) / Fold change /veh PIWIL2 (11732686_x_at) / RFU ORM1 (11744905_x_at) / Fold change /veh ORM1 (11744905_x_at) / RFU CCDC152 (11743942_at) / Fold change /veh CCDC152 (11743942_at) / RFU ECM1 (11717891_a_at) / Fold change /veh ECM1 (11717891_a_at) / RFU IL23R (11748794_a_at) / Fold change /veh IL23R (11748794_a_at) / RFU TNFAIP8L3 (11732012_x_at) / Fold change /veh TNFAIP8L3 (11732012_x_at) / RFU MBOAT4 (11741988_at) / Fold change /veh MBOAT4 (11741988_at) / RFU 11764193_at / Fold change /veh 11764193_at / RFU TMEM53 (11763286_at) / Fold change /veh TMEM53 (11763286_at) / RFU MAGEB2 (11727129_at) / Fold change /veh MAGEB2 (11727129_at) / RFU TMEM200A (11744735_a_at) / Fold change /veh TMEM200A (11744735_a_at) / RFU CCDC152 (11751479_a_at) / Fold change /veh CCDC152 (11751479_a_at) / RFU FAM211A (11726209_a_at) / Fold change /veh FAM211A (11726209_a_at) / RFU RGS16 (11746705_a_at) / Fold change /veh RGS16 (11746705_a_at) / RFU VCAN (11755009_s_at) / Fold change /veh VCAN (11755009_s_at) / RFU RHOB (11743442_s_at) / Fold change /veh RHOB (11743442_s_at) / RFU RGS16 (11720943_a_at) / Fold change /veh RGS16 (11720943_a_at) / RFU RGS16 (11720944_at) / Fold change /veh RGS16 (11720944_at) / RFU, VPS4B / Fold change vs veh, VPS4B / RFU, CREB1 / Fold change vs veh, CREB1 / RFU, DNAJC13 / Fold change vs veh, DNAJC13 / RFU, GNAQ / Fold change vs veh, GNAQ / RFU, CDK5R1 / Fold change vs veh, CDK5R1 / RFU, ZRANB3 / Fold change vs veh, ZRANB3 / RFU, CUL4A / Fold change vs veh, CUL4A / RFU, CCNY / Fold change vs veh, CCNY / RFU, UFL1 / Fold change vs veh, UFL1 / RFU, COG3 / Fold change vs veh, COG3 / RFU, DIAPH2 / Fold change vs veh, DIAPH2 / RFU, SKA2 / Fold change vs veh, SKA2 / RFU, AFF3 / Fold change vs veh, AFF3 / RFU, LMF1 / Fold change vs veh, LMF1 / RFU, IPO11 / Fold change vs veh, IPO11 / RFU, DFFB / Fold change vs veh, DFFB / RFU, FOXP1 / Fold change vs veh, FOXP1 / RFU, CARD8 / Fold change vs veh, CARD8 / RFU, STRN3 / Fold change vs veh, STRN3 / RFU, ADK / Fold change vs veh, ADK / RFU, RASSF2 / Fold change vs veh, RASSF2 / RFU, WIPF1 / Fold change vs veh, WIPF1 / RFU, LARP1B / Fold change vs veh, LARP1B / RFU, RASA1 / Fold change vs veh, RASA1 / RFU, RB1 / Fold change vs veh, RB1 / RFU, PPFIA1 / Fold change vs veh, PPFIA1 / RFU, MAT2A / Fold change vs veh, MAT2A / RFU, CCT5 / Fold change vs veh, CCT5 / RFU, WDR92 / Fold change vs veh, WDR92 / RFU, CUX1 / Fold change vs veh, CUX1 / RFU, TTC7A / Fold change vs veh, TTC7A / RFU, TMEM135 / Fold change vs veh, TMEM135 / RFU, DEPTOR / Fold change vs veh, DEPTOR / RFU, CPM / Fold change vs veh, CPM / RFU, DNAJB6 / Fold change vs veh, DNAJB6 / RFU, CACNA2D3 / Fold change vs veh, CACNA2D3 / RFU, DTX4 / Fold change vs veh, DTX4 / RFU, TFCP2 / Fold change vs veh, TFCP2 / RFU, GMCL1 /// GMCL1P1 / Fold change vs veh, GMCL1 /// GMCL1P1 / RFU, AEBP2 / Fold change vs veh, AEBP2 / RFU, SNHG1 /// SNORD22 /// SNORD25 /// SNORD26 /// SNORD27 /// SNORD28 /// SNORD29 /// SNORD31 / Fold change vs veh, SNHG1 /// SNORD22 /// SNORD25 /// SNORD26 /// SNORD27 /// SNORD28 /// SNORD29 /// SNORD31 / Fold change (Aza/veh), C12orf56 (ProbeSet 11735607_a_at) / Fold change (ACY-1035/veh), C12orf56 (ProbeSet 11735607_a_at) / Fold change (Aza/veh), FGFR1OP (ProbeSet 11751329_s_at) / Fold change (ACY-1035/veh), FGFR1OP (ProbeSet 11751329_s_at) / Fold change (Aza/veh), VPS36 (ProbeSet 11739960_a_at) / Fold change (ACY-1035/veh), VPS36 (ProbeSet 11739960_a_at) / RFU SYPL1 (11715823_x_at) / Fold change /veh SYPL1 (11715823_x_at) / RFU IGFBP7 (11715501_s_at) / Fold change /veh IGFBP7 (11715501_s_at) / RFU REEP3 (11722064_at) / Fold change /veh REEP3 (11722064_at) / RFU IGLL1 (11728026_x_at) / Fold change /veh IGLL1 (11728026_x_at): dose or concentration left out as unconfirmed. The following applies: MV-4-11 cells, 48 hours.

In the case of `Nc1ncn([C@@H]2O[C@H](CO)[C@@H](O)[C@H]2O)c(=O)n1` [azacitidine], the “RFU TUBB4B (11761932_at)” value is on record as 18.89 RFU.
